In patent US20250100993A1, “2-SUBSTITUTED THIAZOLE HSD17B13 INHIBITORS AND USES THEREOF” (Inipharm, Inc., priority 2022, published 2025):

Target: HSD17B13 (Homo sapiens (Human), UniProt Q7Z5P4)
Assay: LC/MS estrone detection assay for HSD17B13 activity (estradiol to estrone)
Assay type: biochemical
Details: estradiol substrate; for IC50: LC-MS/MS estrone detection; for Ki: LCMS, read-out: HSD17B13 Inhibition_Estradiol Substrate_LCMS: Ki
Experimental: The liquid chromatography/mass spectrometry (LC/MS) estrone detection assay monitors the conversion of estradiol to estrone by HSD17B13. This assay was undertaken in a 96 wp format (Eppendorf deep well Plate 96/500) in an 80 μl reaction volume containing: 4 μM of Estradiol (E2; Cayman; Ser. No. 10/006,315), 6 mM NAD+(Sigma; #N0623) and 30 nM HSD17B13 enzyme (in-house; E. coli expressed His-tagged, purified, soluble protein) in a reaction containing 1M potassium phosphate buffer pH 7.4, with 0.5% vehicle (DMSO). Reactions were incubated for 2 hours at 26.5° C., and estradiol (E2) conversion to estrone (E1) was quantitated by LC-MS/MS based analyte detection for both E2 and E1 using LCMS grade reagents.
Reactions were terminated by the addition of two volumes of acetonitrile (MeCN; LCMS grade; CAS #75/05/8) containing deuterated (D4)-E1 used as internal standard (Clear Synth; #CS-T-54273; 500 ng/mL final concentration). Samples were applied to pre-prepared Bond Elut-C18 extraction cartridges (3 mL; Agilent; Ser. No. 12/102,028), washed and eluted in MeCN. Eluates were dried under nitrogen and re-suspended in 60% methanol (LCMS grade methanol; CAS #67/56/1) before submission for analysis. Aqueous linearity for E2 and E1 were included for quantification.
Analysis of samples was undertaken on a XBridge BEH C18 column (Waters; #186003033) using 0.1% Diethyl Amine in MeCN (mobile phase A; DEA CAS #109-89-7) and 0.1% Diethyl Amine in milli-Q water (mobile phase B) in a 3 min gradient allowing 25% B. Analytes were detected in negative mode using MRM analysis, with E2 having a RT of 1.85 min and E1 having a RT of 2 min. Activity of the enzyme, in the absence of NAD+, was used to evaluate specificity of conversion. Enzyme activity in the presence of test samples was expressed as a percentage of the uninhibited enzyme activity, and plotted versus inhibitor concentration. Non-linear regression was performed using a four-parameter logistic model and GraphPad Prism software (GraphPad Software, La Jolla, CA). All assessments were undertaken in duplicate evaluations and pooled during extraction process and subsequently injected as duplicates for LC-MS/MS analysis.

Chain of HSD17B13 (Q7Z5P4 20-300): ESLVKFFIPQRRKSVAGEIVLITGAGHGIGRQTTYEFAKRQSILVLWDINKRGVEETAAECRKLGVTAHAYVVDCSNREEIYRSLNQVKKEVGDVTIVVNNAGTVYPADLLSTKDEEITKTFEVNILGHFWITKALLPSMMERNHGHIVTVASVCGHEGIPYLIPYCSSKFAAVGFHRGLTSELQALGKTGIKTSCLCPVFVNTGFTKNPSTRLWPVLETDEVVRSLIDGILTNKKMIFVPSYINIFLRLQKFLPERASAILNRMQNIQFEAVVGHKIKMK

SMILES | IC50 [µM] | Ki [µM]
Cc1nc2c(F)ccc(NC(=O)c3cc(Cl)c(O)c(Cl)n3)c2c(=O)n1[C@H]1CC[C@@H]1c1ccccc1 [Example 15, 4,6-dichloro-N-(8-fluoro-2-methyl-4-oxo-3-((1S,2R)-2-phenylcyclobutyl)-3,4-dihydroquinazolin-5-yl)-5-hydroxypicolinamide] | 0.1 to 0.5 | –
O=C(Nc1nn(CC(F)(F)F)cc1C(=O)NCc1ccccc1C(F)(F)F)c1cc(Cl)c(O)c(Cl)n1 [Example 50, 4,6-dichloro-5-hydroxy-N-(1-(2,2,2-trifluoroethyl)-4-((2-(trifluoromethyl)benzyl)carbamoyl)-1H-pyrazol-3-yl)picolinamide] | 0.1 to 0.5 | –
O=C(Nc1sc(-c2ccc[nH]c2=O)nc1C(=O)NCc1ccccc1C(F)(F)F)c1cc(Cl)c(O)c(Cl)n1 [Example 74] | – | ≤ 0.05
Cn1cc(NC(=O)c2cc(Cl)c(O)c(Cl)n2)c(C(=O)NCc2ccccc2OC(F)(F)F)n1 [Example 4, 4,6-dichloro-5-hydroxy-N-(1-methyl-3-((2-(trifluoromethoxy)benzyl)carbamoyl)-1H-pyrazol-4-yl)picolinamide] | 0.1 to 0.5 | –
O=C(Nc1n[nH]cc1C(=O)NCc1ccccc1C(F)(F)F)c1cc(Cl)c(O)c(Cl)c1 [Example 3, 3-(3,5-dichloro-4-hydroxybenzamido)-N-(2-(trifluoromethyl)benzyl)-1H-pyrazole-4-carboxamide] | ≤ 0.1 | –
O=C(Nc1scnc1C(=O)NC1CCC2(CC1)CNC2)c1cc(Cl)c(O)c(Cl)n1 [Example 37, 5-(4,6-dichloro-5-hydroxypicolinamido)-N-(2-azaspiro[3.5]nonan-7-yl)thiazole-4-carboxamide] | > 10 | –
CN1CCC(c2nc(C(=O)NCc3ccccc3C(F)(F)F)c(NC(=O)c3cc(Cl)c(O)c(Cl)n3)s2)CC1 [Example 86, 5-(4,6-dichloro-5-hydroxypicolinamido)-2-(1-methylpiperidin-4-yl)-N-(2-(trifluoromethyl)benzyl)thiazole-4-carboxamide] | – | 0.1 to 0.5
O=C(Nc1nn(C(F)F)cc1C(=O)NCc1ccccc1C(F)(F)F)c1cc(Cl)c(O)c(Cl)c1 [Example 55, 3-(3,5-dichloro-4-hydroxybenzamido)-1-(difluoromethyl)-N-(2-(trifluoromethyl)benzyl)-1H-pyrazole-4-carboxamide] | 0.1 to 0.5 | –
O=C(Nc1scnc1C(=O)N1CCC2(CCCCC2)C1)c1cc(Cl)c(O)c(Cl)n1 [Example 31, N-(4-(2-azaspiro[4.5]decane-2-carbonyl)thiazol-5-yl)-4,6-dichloro-5-hydroxypicolinamide] | 1 to 10 | –
O=C(Nc1sc(C2CCOCC2)nc1C(=O)NCc1ccccc1C(F)(F)F)c1cc(Cl)c(O)c(Cl)n1 [Example 81, 5-(4,6-dichloro-5-hydroxypicolinamido)-2-(tetrahydro-2H-pyran-4-yl)-N-(2-(trifluoromethyl)benzyl)thiazole-4-carboxamide] | – | 0.1 to 0.5
O=C(Nc1ccc(-c2ccccc2)nc1C(=O)NCc1ccccc1OC(F)(F)F)c1cc(Cl)c(O)c(Cl)c1 [Example 57, 3-(3,5-dichloro-4-hydroxybenzamido)-6-phenyl-N-(2-(trifluoromethoxy)benzyl)picolin amide] | ≤ 0.1 | –
O=C(Nc1sc(-c2ccccc2)nc1C(=O)NCC(F)(F)F)c1cc(Cl)c(O)c(Cl)n1 [Example 72] | – | 0.1 to 0.5
Cc1ccc(NC(=O)c2cc(Cl)c(O)c(Cl)n2)c2c(=O)n(Cc3ccccc3C(F)(F)F)nnc12 [Example 12, 4,6-dichloro-5-hydroxy-N-(8-methyl-4-oxo-3-(2-(trifluoromethyl)benzyl)-3,4-dihydrobenzo[d][1,2,3]triazin-5-yl)picolinamide] | 0.1 to 0.5 | –
Cn1ncc(C(=O)NCc2ccccc2C(F)(F)F)c1NC(=O)c1cc(Cl)c(O)c(Cl)n1 [Example 10, 4,6-dichloro-5-hydroxy-N-(1-methyl-4-((2-(trifluoromethyl)benzyl)carbamoyl)-1H-pyrazol-5-yl)picolinamide] | 1 to 10 | –
Cn1cc(C(=O)NCc2ccccc2C(F)(F)F)c(NC(=O)c2cc(Cl)c(O)c(Cl)n2)n1 [Example 2, 4,6-dichloro-5-hydroxy-N-(1-methyl-4-((2-(trifluoromethyl)benzyl)carbamoyl)-1H-pyrazol-3-yl)picolinamide] | 0.1 to 0.5 | –
Cc1ccc(NC(=O)c2cc(Cl)c(O)c(Cl)c2)c2c(=O)n(Cc3ccccc3C(F)(F)F)nnc12 [Example 11, 3,5-dichloro-4-hydroxy-N-(8-methyl-4-oxo-3-(2-(trifluoromethyl)benzyl)-3,4-dihydrobenzo[d][1,2,3]triazin-5-yl)benzamide] | ≤ 0.1 | –
O=C(Nc1sc(-c2cncc(F)c2)nc1C(=O)NCc1ccccc1C(F)(F)F)c1cc(Cl)c(O)c(Cl)c1 [Example 75] | – | ≤ 0.05
O=C(Nc1sc(-c2cncc(F)c2)nc1C(=O)NCc1ccccc1C(F)(F)F)c1cc(Cl)c(O)c(Cl)n1 [Example 76] | – | ≤ 0.05
O=C(Nc1sc(-c2ccccc2F)nc1C(=O)NCC12CC(C1)C2)c1cc(F)c(O)c(Cl)c1 [Example 106, N-(bicyclo[1.1.1]pentan-1-ylmethyl)-5-(3-chloro-5-fluoro-4-hydroxybenzamido)-2-(2-fluorophenyl)thiazole-4-carboxamide] | – | ≤ 0.05
O=C(Nc1scnc1C(=O)NCc1c(F)cccc1F)c1cc(Cl)c(O)c(Cl)n1 [Example 33, 5-(4,6-dichloro-5-hydroxypicolinamido)-N-(2,6-difluorobenzyl)thiazole-4-carboxamide] | 0.1 to 0.5 | –
CC(C)(C)CCNC(=O)c1ncsc1NC(=O)c1cc(Cl)c(O)c(Cl)n1 [Example 35, 5-(4,6-dichloro-5-hydroxypicolinamido)-N-(3,3-dimethylbutyl)thiazole-4-carboxamide] | 0.1 to 0.5 | –
CN(Cc1ccccc1C(F)(F)F)C(=O)c1ncsc1NC(=O)c1cc(Cl)c(O)c(Cl)n1 [Example 25, 5-(4,6-dichloro-5-hydroxypicolinamido)-N-methyl-N-(2-(trifluoromethyl)benzyl)thiazole-4-carboxamide] | 0.1 to 0.5 | –
O=C(Nc1sc(N2CCOCC2)nc1C(=O)NCc1ccccc1C(F)(F)F)c1cc(Cl)c(O)c(Cl)n1 [Example 80, 5-(4,6-dichloro-5-hydroxypicolinamido)-2-morpholino-N-(2-(trifluoromethyl)benzyl)thiazole-4-carboxamide] | – | 0.1 to 0.5
CC(C)n1cc(C(=O)NCc2ccccc2C(F)(F)F)c(NC(=O)c2cc(Cl)c(O)c(Cl)n2)n1 [Example 48, 4,6-dichloro-5-hydroxy-N-(1-isopropyl-4-((2-(trifluoromethyl)benzyl)carbamoyl)-1H-pyrazol-3-yl)picolinamide] | 0.1 to 0.5 | –
O=C(Nc1nn(C2CC2)cc1C(=O)NCc1ccccc1C(F)(F)F)c1cc(Cl)c(O)c(Cl)n1 [Example 54, 4,6-dichloro-N-(1-cyclopropyl-4-((2-(trifluoromethyl)benzyl)carbamoyl)-1H-pyrazol-3-yl)-5-hydroxypicolinamide] | 1 to 10 | –
O=C(Nc1sc(C2CCOCC2)nc1C(=O)NCc1ccccc1C(F)(F)F)c1cc(Cl)c(O)c(Cl)c1 [Example 82, 5-(3,5-dichloro-4-hydroxybenzamido)-2-(tetrahydro-2H-pyran-4-yl)-N-(2-(trifluoromethyl)benzyl)thiazole-4-carboxamide] | – | 0.1 to 0.5
O=C(Nc1sc(-c2ccccc2F)nc1C(=O)NCc1ccccc1C(F)(F)F)c1cc(Cl)c(O)c(F)n1 [Example 107, 5-(4-chloro-6-fluoro-5-hydroxypicolinamido)-2-(2-fluorophenyl)-N-(2-(trifluoromethyl)benzyl)thiazole-4-carboxamide] | – | ≤ 0.05
